Assay results published in patent publication US6479435B1, “Diaryl ethers and processes for their preparation and herbicidal and desiccant compositions containing them” (ISK Americas Incorporated, priority 1997, dated 2002).

Experiments:
Format in all cases: in vivo
[1] = system: Johnsongrass (Sorghum halepense, SORHA); experiment: Pre-emerge greenhouse herbicide test, phytotoxicity rating; settings: 14 days after application, rating scale 0-100
In short: (§1)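 Seeds sown in sandy loam one day before track-sprayer application of acetone solutions at 125–1000 g ai/ha (187 l/ha), then surface-watered to incorporate and bottom-watered. Injury scored visually at 14 days on a 0–100 scale (0 no damage, 100 complete death).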

[2] = system: barnyardgrass (Echinochloa crusgalli, ECHCG); experiment: as above; settings: 14 days after application, rating scale 0-100
In short: as §1

[3] = system: common ragweed (Ambrosia artemisiifolia L., AMBEL); experiment: as above; settings: 14 days after application, rating scale 0-100
In short: as §1

[4] = system: green foxtail (Setaria viridis, SETVI); experiment: as above; settings: 14 days after application, rating scale 0-100
In short: as §1

[5] = system: ivyleaf morningglory (Ipomoea hederacea, IPOHE); experiment: as above; settings: 14 days after application, rating scale 0-100
In short: as §1

[6] = system: lambsquarters (Chenopodium album, CHEAL); experiment: as above; settings: 14 days after application, rating scale 0-100
In short: as §1

[7] = system: large crabgrass (Digitaria sanguinalis, DIGSA); experiment: as above; settings: 14 days after application, rating scale 0-100
In short: as §1

[8] = system: redroot pigweed (Amaranthus retroflexus, AMARE); experiment: as above; settings: 14 days after application, rating scale 0-100
In short: as §1

[9] = system: sicklepod (Cassia obtusifolia, CASOB); experiment: as above; settings: 14 days after application, rating scale 0-100
In short: as §1

[10] = system: velvetleaf (Abutilon theophrasti, ABUTH); experiment: as above; settings: 14 days after application, rating scale 0-100
In short: as §1

[11] = system: field corn (Zea mays L., var. Dekalb 535, CORN); experiment: Pre-emerge greenhouse test, crop damage rating; settings: 14 days after application, rating scale 0-100
In short: as §1

[12] = system: upland rice (Oryza sp., var.Tebonnet, RICE); experiment: Pre-emerge greenhouse test, crop damage rating; settings: 14 days after application, rating scale 0-100
In short: as §1

[13] = system: soybean (Glycine max L., var. Pella 86, SOY); experiment: Pre-emerge greenhouse test, crop damage rating; settings: 14 days after application, rating scale 0-100
In short: as §1

[14] = system: common ragweed (Ambrosia artemisiifolia L., AMBEL); experiment: Post-emerge greenhouse herbicide test, phytotoxicity rating; settings: 14 days after application
In short: (§2)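 Plants at the 2-3 leaf stage, sown 8-21 days earlier, were track-sprayed post-emergence with compound in acetone plus 0.25% v/v non-ionic surfactant at 63-1000 g ai/ha (187 l/ha). Damage was rated at 14 days on a 0-100 scale (0 none, 100 all plants dead), for both crop injury and weed control.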

[15] = system: Johnsongrass (Sorghum halepense, SORHA); experiment: as above; settings: 14 days after application
In short: as §2

[16] = system: barnyardgrass (Echinochloa crusgalli, ECHCG); experiment: as above; settings: 14 days after application
In short: as §2

[17] = system: green foxtail (Setaria viridis, SETVI); experiment: as above; settings: 14 days after application
In short: as §2

[18] = system: ivyleaf morningglory (Ipomoea hederacea, IPOHE); experiment: as above; settings: 14 days after application
In short: as §2

[19] = system: lambsquarters (Chenopodium album, CHEAL); experiment: as above; settings: 14 days after application
In short: as §2

[20] = system: large crabgrass (Digitaria sanguinalis, DIGSA); experiment: as above; settings: 14 days after application
In short: as §2

[21] = system: redroot pigweed (Amaranthus retroflexus, AMARE); experiment: as above; settings: 14 days after application
In short: as §2

[22] = system: velvetleaf (Abutilon theophrasti, ABUTH); experiment: as above; settings: 14 days after application
In short: as §2

[23] = system: field corn (Zea mays L., var. Dekalb 535, CORN); experiment: Post-emerge greenhouse test, crop damage rating; settings: 14 days after application
In short: as §2

[24] = system: upland rice (Oryza sp., var.Tebonnet, RICE); experiment: Post-emerge greenhouse test, crop damage rating; settings: 14 days after application
In short: as §2

[25] = system: soybean (Glycine max L., var. Pella 86, SOY); experiment: Post-emerge greenhouse test, crop damage rating; settings: 14 days after application
In short: as §2

Cn1nc(-c2cc(Oc3cccc(F)n3)c(Cl)cc2F)c(Cl)c1C(F)(F)F [Compound 1-5]
phytotoxicity rating SORHA ([1]; 125 g ai/ha): 50
phytotoxicity rating SORHA ([1]; 500 g ai/ha): 95
phytotoxicity rating ECHCG ([2]; 125 g ai/ha): 50
phytotoxicity rating ECHCG ([2]; 500 g ai/ha): 90
phytotoxicity rating AMBEL ([3]; 125 g ai/ha): 50
phytotoxicity rating AMBEL ([3]; 500 g ai/ha): 90
phytotoxicity rating SETVI ([4]; 125 g ai/ha): 100
phytotoxicity rating SETVI ([4]; 500 g ai/ha): 100
phytotoxicity rating IPOHE ([5]; 125 g ai/ha): 30
phytotoxicity rating IPOHE ([5]; 500 g ai/ha): 70
phytotoxicity rating CHEAL ([6]; 125 g ai/ha): 100
phytotoxicity rating CHEAL ([6]; 500 g ai/ha): 100
phytotoxicity rating DIGSA ([7]; 125 g ai/ha): 100
phytotoxicity rating DIGSA ([7]; 500 g ai/ha): 90
phytotoxicity rating AMARE ([8]; 125 g ai/ha): 100
phytotoxicity rating AMARE ([8]; 500 g ai/ha): 100
phytotoxicity rating CASOB ([9]; 125 g ai/ha): 50
phytotoxicity rating CASOB ([9]; 500 g ai/ha): 100
phytotoxicity rating ABUTH ([10]; 125 g ai/ha): 70
phytotoxicity rating ABUTH ([10]; 500 g ai/ha): 90
crop damage rating CORN ([11]; 125 g ai/ha): 20
crop damage rating CORN ([11]; 500 g ai/ha): 30
crop damage rating RICE ([12]; 125 g ai/ha): 30
crop damage rating RICE ([12]; 500 g ai/ha): 20
crop damage rating SOY ([13]; 125 g ai/ha): 0
crop damage rating SOY ([13]; 500 g ai/ha): 0
AMBEL phytotoxicity rating (0-100) ([14]; 63 g al/ha): 30
AMBEL phytotoxicity rating (0-100) ([14]; 500 g al/ha): 90
SORHA phytotoxicity rating (0-100) ([15]; 63 g al/ha): 30
SORHA phytotoxicity rating (0-100) ([15]; 500 g al/ha): 95
ECHCG phytotoxicity rating (0-100) ([16]; 63 g al/ha): 30
ECHCG phytotoxicity rating (0-100) ([16]; 500 g al/ha): 100
SETVI phytotoxicity rating (0-100) ([17]; 63 g al/ha): 0
SETVI phytotoxicity rating (0-100) ([17]; 500 g al/ha): 100
IPOHE phytotoxicity rating (0-100) ([18]; 63 g al/ha): 95
IPOHE phytotoxicity rating (0-100) ([18]; 500 g al/ha): 100
CHEAL phytotoxicity rating (0-100) ([19]; 63 g al/ha): 95
CHEAL phytotoxicity rating (0-100) ([19]; 500 g al/ha): 100
DIGSA phytotoxicity rating (0-100) ([20]; 63 g al/ha): 50
DIGSA phytotoxicity rating (0-100) ([20]; 500 g al/ha): 99
AMARE phytotoxicity rating (0-100) ([21]; 63 g al/ha): 100
AMARE phytotoxicity rating (0-100) ([21]; 500 g al/ha): 100
ABUTH phytotoxicity rating (0-100) ([22]; 63 g al/ha): 30
ABUTH phytotoxicity rating (0-100) ([22]; 500 g al/ha): 100
CORN crop damage rating (0-100) ([23]; 63 g al/ha): 10
CORN crop damage rating (0-100) ([23]; 500 g al/ha): 30
RICE crop damage rating (0-100) ([24]; 63 g al/ha): 40
RICE crop damage rating (0-100) ([24]; 500 g al/ha): 80
SOY crop damage rating (0-100) ([25]; 63 g al/ha): 40
SOY crop damage rating (0-100) ([25]; 500 g al/ha): 90

O=c1n(CCCF)nnn1-c1cc(Oc2ncccc2C(F)(F)F)c(Cl)cc1Cl [Compound 6-7]
phytotoxicity rating SORHA ([1]; 125 g ai/ha): 20
phytotoxicity rating SORHA ([1]; 500 g ai/ha): 40
phytotoxicity rating ECHCG ([2]; 125 g ai/ha): 0
phytotoxicity rating ECHCG ([2]; 500 g ai/ha): 50
phytotoxicity rating AMBEL ([3]; 125 g ai/ha): 30
phytotoxicity rating AMBEL ([3]; 500 g ai/ha): 0
phytotoxicity rating SETVI ([4]; 125 g ai/ha): 80
phytotoxicity rating SETVI ([4]; 500 g ai/ha): 100
phytotoxicity rating IPOHE ([5]; 125 g ai/ha): 0
phytotoxicity rating IPOHE ([5]; 500 g ai/ha): 30
phytotoxicity rating CHEAL ([6]; 125 g ai/ha): 80
phytotoxicity rating CHEAL ([6]; 500 g ai/ha): 90
phytotoxicity rating DIGSA ([7]; 125 g ai/ha): 40
phytotoxicity rating DIGSA ([7]; 500 g ai/ha): 70
phytotoxicity rating AMARE ([8]; 500 g ai/ha): 100
phytotoxicity rating CASOB ([9]; 125 g ai/ha): 0
phytotoxicity rating CASOB ([9]; 500 g ai/ha): 60
phytotoxicity rating ABUTH ([10]; 125 g ai/ha): 0
phytotoxicity rating ABUTH ([10]; 500 g ai/ha): 20
crop damage rating CORN ([11]; 125 g ai/ha): 0
crop damage rating CORN ([11]; 500 g ai/ha): 30
crop damage rating RICE ([12]; 125 g ai/ha): 0
crop damage rating RICE ([12]; 500 g ai/ha): 40
crop damage rating SOY ([13]; 125 g ai/ha): 80
crop damage rating SOY ([13]; 500 g ai/ha): 90
AMBEL phytotoxicity rating (0-100) ([14]; 63 g al/ha): 0
AMBEL phytotoxicity rating (0-100) ([14]; 500 g al/ha): 30
SORHA phytotoxicity rating (0-100) ([15]; 63 g al/ha): 0
SORHA phytotoxicity rating (0-100) ([15]; 500 g al/ha): 30
ECHCG phytotoxicity rating (0-100) ([16]; 63 g al/ha): 0
ECHCG phytotoxicity rating (0-100) ([16]; 500 g al/ha): 50
SETVI phytotoxicity rating (0-100) ([17]; 63 g al/ha): 20
SETVI phytotoxicity rating (0-100) ([17]; 500 g al/ha): 30
IPOHE phytotoxicity rating (0-100) ([18]; 63 g al/ha): 0
IPOHE phytotoxicity rating (0-100) ([18]; 500 g al/ha): 50
CHEAL phytotoxicity rating (0-100) ([19]; 63 g al/ha): 50
CHEAL phytotoxicity rating (0-100) ([19]; 500 g al/ha): 80
DIGSA phytotoxicity rating (0-100) ([20]; 63 g al/ha): 0
DIGSA phytotoxicity rating (0-100) ([20]; 500 g al/ha): 10
AMARE phytotoxicity rating (0-100) ([21]; 63 g al/ha): 70
AMARE phytotoxicity rating (0-100) ([21]; 500 g al/ha): 80
ABUTH phytotoxicity rating (0-100) ([22]; 63 g al/ha): 0
ABUTH phytotoxicity rating (0-100) ([22]; 500 g al/ha): 70
CORN crop damage rating (0-100) ([23]; 63 g al/ha): 0
CORN crop damage rating (0-100) ([23]; 500 g al/ha): 10
RICE crop damage rating (0-100) ([24]; 63 g al/ha): 0
RICE crop damage rating (0-100) ([24]; 500 g al/ha): 50
SOY crop damage rating (0-100) ([25]; 63 g al/ha): 0
SOY crop damage rating (0-100) ([25]; 500 g al/ha): 30
